Laboratory results as given in the NIST ThermoML archive (doi:10.1021/je800828y).
Numbers after ± are expanded uncertainties.

Settings: 351.44 K; Liquid; Ebulliometric method (Recirculating still)

With CCO [ethanol] the “vapor or sublimation pressure” value was 101.3 ± 0.1 kPa.
